Columns and labels:
[1] = target: T1, human serotonin re-uptake transporter (hSERT) (Homo sapiens, UniProt P31645); assay: Labeled citalopram displacement from hSERT containing membranes (SPA); format: binding
Procedure: Membranes containing hSERT were prepared from the above cell line according to Galli et al, Journal of Experimental Biology 1995, 198, 2197-2212. 3 μg of membrane protein and 0.8 mg of wheat germ aglutinin coated SPA® (scintillation proximity assay) beads (Amersham Biosciences GE Healthcare, Slough, UK) per data point were mixed with radio-labeled (3H) citalopram (Amersham Biosciences GE Healthcare, Slough, UK) until a final concentration of 3.3 nM in 50 mM Tris-HCl, 300 mM NaCl (pH 7.4). After incubation for 18 hours at room temperature, the bound citalopram was quantified by liquid scintillation counting.
(§1) The effect of the coumarin ethers of formula I on the serotonin uptake and the citalopram binding was determined by its inclusion in the assay at a range of concentrations between 0.03 and 100 μM for 10 minutes prior to and during the addition of (3H) serotonin/citalopram. Serotonin uptake via the transporter and citalopram binding were both inhibited by the coumarin ethers of formula I in a dose dependent manner. The calculated inhibition constants Ki, derived from the measured IC50 using the Cheng—Prusoff equation (Y. C. Cheng, W. H. Prusoff, Biochem. Pharmacol. 1973, 22, p. 3099-3108), for inhibition of serotonin uptake and citalopram binding by coumarin ethers of the formula I are shown in Table 1.

[2] = target: T1, human serotonin re-uptake transporter (hSERT); assay: Serotonin uptake inhibition in HEK-293 cells stably expressing hSERT; format: cell-based
Procedure: HEK-293 cells stably expressing the human serotonin re-uptake transporter (hSERT) were obtained from R. Blakely, Vanderbilt University, USA. The cells were routinely grown in Dulbeco's Modified Eagles Medium, purchased from Bioconcept, Allschwil, Switzerland containing 10% fetal calf serum, penicillin, streptomycin, L-glutamine and the antibiotic G418 and passaged by trypsinisation. 1 day prior to the assay cells were seeded in the above mentioned medium. Immediately prior to the assay the medium was replaced by Krebs Ringers bicarbonate buffer, purchased from Sigma Chemicals Ltd., supplemented with 35 μM pargyline, 2.2 mM CaCl2, 1 mM ascorbic acid and 5 mM N-2-hydroxyethylpiperazine-N′-2-ethanesulfonic acid (buffer called “Hepes”). Serotonin uptake into the cells was determined by addition of radio-labeled (3H) serotonin (Amersham Biosciences GE Healthcare, Slough, UK) to a concentration of 20 nM, and incubation for 30 minutes at room temperature. Following removal of unincorporated label by gentle washing three times with the above buffer, incorporated serotonin was quantified by liquid scintillation counting.
as §1

mice = assay: Marble burying test (anxiety like or obsessive compulsive behaviour); format: in vivo; details: for number of marbles covered by sawdust, mean ± s.e.m.: 25 marbles, 30-minute test
Procedure: The method applied here follows that described by Broekkamp et al. (1986). Mice (n=15 per treatment group) were individually placed in transparent plastic cages (33×21×18 cm) with 5 cm of sawdust on the floor and 25 marbles (diameter 1 cm) grouped in the centre of the cage. A second, up-turned, cage served as a lid. The number of marbles covered by sawdust (by at least two-thirds) was counted at the end of the 30-minute test period. Tests were performed by investigators blind to the drug treatment protocol.
Prior to testing, all test cages and marbles were “impregnated” by leaving 10 naive mice in each cage for 15 minutes.
7-Geranyl-oxycoumarin was evaluated at 3, 10 and 30 mg/kg, administered i.p. 30 minutes before the test, and compared with a vehicle control group. 7-Geranyl-oxycoumarin was dissolved in a saline solution containing 3 weight-% DMSO and 3 weight-% Tween® 80 (so called “vehicle”). To the control group the vehicle consisting of the saline solution containing 3 weight-% DMSO and 3 weight-% Tween® 80 was administered intraperitonally. Fluoxetine (32 mg/kg), administered under the same experimental conditions, was used as a reference substance.
Data were analysed by comparing treated groups with vehicle control using unpaired Student's t-tests.

[3] = hSERT containing membranes, Ki from IC50 by Cheng-Prusoff, 3.3 nM (3H) citalopram, read-out: Inhibition constant Ki for tritiated citalopram displacement
[4] = transfected HEK-293 cells, Ki from IC50 by Cheng-Prusoff, 20 nM (3H) serotonin, read-out: Inhibition constant Ki for tritiated serotonin uptake

T1 sequence (P31645 whole entry): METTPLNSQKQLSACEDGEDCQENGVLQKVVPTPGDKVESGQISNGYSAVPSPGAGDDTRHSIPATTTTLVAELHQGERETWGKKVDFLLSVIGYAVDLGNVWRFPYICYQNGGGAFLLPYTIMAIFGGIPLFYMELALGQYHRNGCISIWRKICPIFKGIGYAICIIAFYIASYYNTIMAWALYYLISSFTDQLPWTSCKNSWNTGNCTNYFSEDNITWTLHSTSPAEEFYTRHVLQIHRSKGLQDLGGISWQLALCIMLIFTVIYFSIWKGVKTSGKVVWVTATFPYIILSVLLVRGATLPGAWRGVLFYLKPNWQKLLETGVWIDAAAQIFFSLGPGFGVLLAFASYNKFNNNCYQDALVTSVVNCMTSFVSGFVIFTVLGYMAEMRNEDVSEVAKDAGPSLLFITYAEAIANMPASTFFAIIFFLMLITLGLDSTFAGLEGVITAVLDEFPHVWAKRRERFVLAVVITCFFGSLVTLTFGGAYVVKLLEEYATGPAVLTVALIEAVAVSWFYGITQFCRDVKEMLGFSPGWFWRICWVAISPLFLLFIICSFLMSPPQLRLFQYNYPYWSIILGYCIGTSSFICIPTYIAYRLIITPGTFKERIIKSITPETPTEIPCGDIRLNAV

Compound: C/C(=C\COc1ccc2ccc(=O)oc2c1)CCC(=O)C(C)(C)O [6′-Dehydromarmin, 6′-dehydromarmin]
- Ki [1, 3]: 10.3 µM
- Ki [2, 4]: 12.1 µM

Compound: CC(C)=CCC/C(C)=C/COc1ccc2ccc(=O)oc2c1 [7-Geranyloxycoumarin, 7-geranyloxycoumarin]
- Ki [1, 3]: 24.2 µM
- Ki [2, 4]: 22.4 µM
- number of marbles covered by sawdust, % change from control (mice; 3 mg/kg i.p. −30 minutes, 3 mg/kg): −27%
- number of marbles covered by sawdust, mean ± s.e.m. (mice; 3 mg/kg i.p. −30 minutes): 13.4 ± 2.0
- number of marbles covered by sawdust, % change from control (mice; 3 mg/kg i.p. −30 minutes, listed as 7-Geranyl-oxycoumauin, 3 mg/kg): −27%
- number of marbles covered by sawdust, % change from control (mice; 10 mg/kg i.p. −30 minutes, 10 mg/kg): −39%
- number of marbles covered by sawdust, mean ± s.e.m. (mice; 10 mg/kg i.p. −30 minutes): 11.3 ± 2.4
- number of marbles covered by sawdust, % change from control (mice; 10 mg/kg i.p. −30 minutes, listed as 7-Geranyl-oxycoumauin, 10 mg/kg): −39%
- number of marbles covered by sawdust, % change from control (mice; 30 mg/kg i.p. −30 minutes, 30 mg/kg): −74%
- number of marbles covered by sawdust, mean ± s.e.m. (mice; 30 mg/kg i.p. −30 minutes): 4.7 ± 1.5
- number of marbles covered by sawdust, % change from control (mice; 30 mg/kg i.p. −30 minutes, listed as 7-Geranyl-oxycoumauin, 30 mg/kg): −74%

Compound: CC(=O)OC(C)(C)[C@@H]1Cc2c(ccc3ccc(=O)oc23)O1 [(S)—O-Acetylcolumbianetin]
- Ki [1, 3]: 11.6 µM
- Ki [2, 4]: 21.7 µM

Compound: C/C(=C\COc1ccc2ccc(=O)oc2c1)C1=CC(=O)C(C)(C)O1 [Geiparvarin, geiparvarin]
- Ki [1]: 5.6 µM
- Ki [2]: 7 µM

Compound: COc1cc2oc(=O)ccc2cc1CC=C(C)C [Suberosin, suberosin]
- Ki [1, 3]: 39.3 µM
- Ki [2, 4]: 9.8 µM

Compound: CC1(C)C=Cc2cc3ccc(=O)oc3cc2O1 [Xanthyletin, xanthyletin]
- Ki [1, 3]: 11.9 µM
- Ki [2, 4]: 20.2 µM

Compound: CNCCC(Oc1ccc(C(F)(F)F)cc1)c1ccccc1 (stereo not drawn) [fluoxetine, reference compound]
- number of marbles covered by sawdust, % change from control (mice; 32 mg/kg i.p. −30 min, 32 mg/kg): −98%
- number of marbles covered by sawdust, mean ± s.e.m. (mice; 32 mg/kg i.p. −30 min): 0.3 ± 0.2
- number of marbles covered by sawdust, % change from control (mice; 32 mg/kg i.p. −30 min, listed as Fluoxetine, 32 mg/kg): −98%

Reference: patent US8044094B2, “Agents for preventing and treating disorders connected to impaired neurotransmission” (DSM IP Assets B.V., priority 2004, dated 2011)
